Assay results: patent US10487071B2, “Bis-triazole compounds with anti-biofilm and anti-corrosion properties” (Université de Toulon, priority 2015, dated 2019)

Key:
[1] = Gravimetry (weight loss), corrosion inhibition; conditions: mild steel in 1N HCl
Description: The corrosion rates were determined by electrochemical impedance spectroscopy measurements and gravimetry.
Weight loss measurements were performed on 2.5×2.0×0.1 cm rectangular mild steel coupons. The mild steel coupons were immersed into non-de-aerated HCl 1N solution in absence and presence of different concentrations of compounds of general formula (I). After the elapsed time, the coupons were taken out, washed, dried and weighed accurately. Experiments were duplicated.
Weight loss experiments were done to confirm the corrosion inhibitive properties of AS164.
The inhibition efficiency, IE (%), was estimated from the weight loss experiments using the following equation:
[formula] wherein CR^o and CR are respectively the corrosion rate in the absence and presence of AS164.

[2] = tested on: Pseudoalteromonas lipolytica (TC8); assay: Anti-adhesion test, strain TC8; format: cell-based; conditions: Pseudoalteromonas lipolytica; for activity at 200 µM: 15 h, read-out: % of adhesion at 200 μM, TC8; for EC50: read-out: EC50 (effective concentration to inhibit 50% of the adhesion), TC8
Description: (§1) The anti-adhesion bioassays and toxicity tests are adapted from those disclosed in M. Camps, J.-F. Briand, L. Guentas-Dombrowsky, G. Culioli, A. Bazire and Y. Blache, Mar. Poll.
(§2) Bacterial strains were grown on Väätänen nine-salts solution (VNSS). When the stationary phase was reached, the bacterial suspension was centrifuged. Cells were then diluted in sterile artificial sea water (ASW) and introduced in microtiter plates (sterile black PS; Nunc, Fisher Scientific, France) with the tested compound (at eight concentrations in three replicates) in the presence of three controls: (i) non-specific staining control, (ii) adhesion control, and (iii) positive control. The maximum percentage of solvent (DMSO 2%) used to dilute the tested compound was also tested in triplicate as additional control. After incubation during an optimized adhesion time (moderately 15 h), non-adhered bacteria were eliminated and adhered cells were quantified after SYTO 61 (1 μM) staining. A percentage of inhibition was calculated per well. A sigmoid dose-response curve was obtained by plotting the percentage of inhibition as a function of the log of tested compound concentration, after mean (n=3) and standard deviation (SD) calculation per triplicate for each concentration. EC50 values were then calculated for each compound.

Shewanella sp. (TC11) = assay: Anti-adhesion test, strain TC11; format: cell-based; conditions: for activity at 200 µM: 15 h, strain TC11, read-out: % of adhesion at 200 μM, TC11; for EC50: read-out: EC50 (effective concentration to inhibit 50% of the adhesion), strain TC11
Description: as §2
Shewanella sp. (TC11) was isolated in June 2010 in the Military Harbor of Toulon (Mediterranean Sea, France) as described in F. Brian-Jaisson, A. Ortalo-Magné, L. Guentas-Dombrowsky, F. Armougom, Y. Blache, M. Molmeret, Microb. Ecol., 2014, 68, 94-110.

[3] = tested on: Pseudoalteromonas ulvae (TC14); assay: Anti-adhesion test, strain TC14; format: cell-based; conditions: Pseudoalteromonas ulvae; for activity at 200 µM: 15 h; for EC50: read-out: EC50 (effective concentration to inhibit 50% of the adhesion)
Description: as §2
Pseudoalteromonas ulvae (TC14) was isolated in June 2010 in the Military Harbor of Toulon (Mediterranean Sea, France) as described in F. Brian-Jaisson, A. Ortalo-Magné, L. Guentas-Dombrowsky, F. Armougom, Y. Blache, M. Molmeret, Microb. Ecol., 2014, 68, 94-110.

Polaribacter sp. (TC5) = assay: Anti-adhesion test, strain TC5; format: cell-based; conditions: for activity at 200 µM: 15 h; for EC50: read-out: EC50 (effective concentration to inhibit 50% of the adhesion)
Description: as §2
Polaribacter sp. (TC5) was isolated in June 2010 in the Military Harbor of Toulon (Mediterranean Sea, France) as described in F. Brian-Jaisson, A. Ortalo-Magné, L. Guentas-Dombrowsky, F. Armougom, Y. Blache, M. Molmeret, Microb. Ecol., 2014, 68, 94-110.

Paracoccus sp. (4M6) = assay: Anti-adhesion test, strain 4M6; format: cell-based; conditions: Paracoccus; for activity at 200 µM: 15 h, read-out: % of adhesion at 200 μM, 4M6; for EC50: read-out: EC50 (effective concentration to inhibit 50% of the adhesion), 4M6
Description: as §1, §2

CN(C)CCOc1ccc(CCn2cc(-c3ccc(-c4cn(CCc5ccc(OCCN(C)C)c(Cl)c5)nn4)cc3)nn2)cc1Cl [SA63, 2-(4-(2-(4-(4-(1-(4-(2-(dimethylamino)ethoxy)-3-chlorophenethyl)-1H-1,2,3-triazol-4-yl)phenyl)-1H-1,2,3-triazol-1-yl)ethyl)-2-chlorophenoxy)-N,N-dimethylethanamine]
IE % ([1]; 0.1 ppm): 90.68% | IE % ([1]; 0.3 ppm): 95.02% | IE % ([1]; 0.5 ppm): 95.82% | IE % ([1]; 2 ppm): 95.98% | IE % ([1]; 10 ppm): 96.95% | activity at 200 µM [2]: 29 ± 3.2% | EC50 [2]: 138 ± 10.6 µM | activity at 200 µM (Shewanella sp. (TC11)): 37 ± 1% | EC50 (Shewanella sp. (TC11)): 136 ± 5.1 µM | activity at 200 µM [3]: 30.6 ± 5.3% | EC50 [3]: 122 ± 10.7 µM | activity at 200 µM (Polaribacter sp. (TC5)): 37.3 ± 6% | EC50 (Polaribacter sp. (TC5)): 133 ± 9.2 µM | activity at 200 µM (Paracoccus sp. (4M6)): 43.6 ± 3.3% | EC50 (Paracoccus sp. (4M6)): 96.6 ± 36.2 µM

CN(C)CCCOc1ccc(CCn2cc(-c3ccc(-c4cn(CCc5ccc(OCCCN(C)C)c(Cl)c5)nn4)cc3)nn2)cc1Cl [SA64, 3-(4-(2-(4-(4-(1-(4-(3-(dimethylamino)propoxy)-3-chlorophenethyl)-1H-1,2,3-triazol-4-yl)phenyl)-1H-1,2,3-triazol-1-yl)ethyl)-2-chlorophenoxy)-N,N-dimethylpropan-1-amine]
IE % ([1]; 0.1 ppm): 90.59% | IE % ([1]; 0.3 ppm): 94.18% | IE % ([1]; 0.5 ppm): 95.90% | IE % ([1]; 2 ppm): 96.37% | IE % ([1]; 10 ppm): 96.64% | activity at 200 µM [2]: 20.2 ± 21.1% | EC50 [2]: 121 ± 76.8 µM | activity at 200 µM (Shewanella sp. (TC11)): 42.6 ± 5.6% | EC50 (Shewanella sp. (TC11)): 152 ± 20.4 µM | activity at 200 µM [3]: 28.4 ± 14% | EC50 [3]: 147 ± 14.4 µM | activity at 200 µM (Polaribacter sp. (TC5)): 42.9 ± 4.5% | EC50 (Polaribacter sp. (TC5)): 150 ± 8.1 µM | activity at 200 µM (Paracoccus sp. (4M6)): 31 ± 12.4% | EC50 (Paracoccus sp. (4M6)): 43.3 ± 14.6 µM

CN(C)CCOc1ccc(CCn2cc(-c3ccc(-c4cn(CCc5ccc(OCCN(C)C)c(I)c5)nn4)cc3)nn2)cc1I [SA45, 2-(4-(2-(4-(4-(1-(4-(2-(dimethylamino)ethoxy)-3-iodophenethyl)-1H-1,2,3-triazol-4-yl)phenyl)-1H-1,2,3-triazol-1-yl)ethyl)-2-iodophenoxy)-N,N-dimethylethanamine]
IE % ([1]; 0.1 ppm): 78.07% | IE % ([1]; 0.3 ppm): 93.01% | IE % ([1]; 0.5 ppm): 94.67% | IE % ([1]; 2 ppm): 95.23% | IE % ([1]; 10 ppm): 96.09% | activity at 200 µM [2]: 30 ± 16.3% | EC50 [2]: 135 ± 34.3 µM | activity at 200 µM (Shewanella sp. (TC11)): 9.3 ± 0.5% | EC50 (Shewanella sp. (TC11)): 129 ± 13.2 µM | activity at 200 µM [3]: 42.1 ± 2.9% | EC50 [3]: 175 ± 21.2 µM | activity at 200 µM (Polaribacter sp. (TC5)): 37.5 ± 13.3% | EC50 (Polaribacter sp. (TC5)): 147 ± 32.4 µM | activity at 200 µM (Paracoccus sp. (4M6)): 3.2 ± 4.6% | EC50 (Paracoccus sp. (4M6)): 14.2 ± 3.2 µM

CN(C)CCOc1ccc(-n2cc(-c3ccc(-c4cn(-c5ccc(OCCN(C)C)cc5)nn4)cc3)nn2)cc1 [SA61, 2-(4-(4-(4-(1-(4-(2-(dimethylamino)ethoxy)phenyl)-1H-1,2,3-triazol-4-yl)phenyl)-1H-1,2,3-triazol-1-yl)phenoxy)-N,N-dimethylethanamine]
IE % ([1]; 0.1 ppm): 87.42% | IE % ([1]; 0.3 ppm): 91.92% | IE % ([1]; 0.5 ppm): 94.34% | IE % ([1]; 2 ppm): 95.55% | IE % ([1]; 10 ppm): 95.93% | activity at 200 µM [2]: 45.6 ± 1.2% | EC50 [2]: 184.4 ± 0.6 µM | activity at 200 µM (Shewanella sp. (TC11)): 19.3 ± 16.9% | EC50 (Shewanella sp. (TC11)): 140 ± 63.5 µM | activity at 200 µM [3]: 47.8 ± 1.7% | EC50 [3]: 194 ± 13.7 µM | activity at 200 µM (Polaribacter sp. (TC5)): 89.4 ± 0.8% | activity at 200 µM (Paracoccus sp. (4M6)): 40.2 ± 0.3% | EC50 (Paracoccus sp. (4M6)): 179 ± 44.9 µM

CN(C)CCCOc1ccc(-n2cc(-c3ccc(-c4cn(-c5ccc(OCCCN(C)C)c(Br)c5)nn4)cc3)nn2)cc1Br [SA66, 3-(4-(4-(4-(1-(4-(3-(dimethylamino)propoxy)-3-bromophenyl)-1H-1,2,3-triazol-4-yl)phenyl)-1H-1,2,3-triazol-1-yl)-2-bromophenoxy)-N,N-dimethylpropan-1-amine]
IE % ([1]; 0.1 ppm): 85.79% | IE % ([1]; 0.3 ppm): 88.30% | IE % ([1]; 0.5 ppm): 90.41% | IE % ([1]; 2 ppm): 95.16% | IE % ([1]; 10 ppm): 96.48% | activity at 200 µM [2]: 31.7 ± 2.2% | EC50 [2]: 141 ± 16.5 µM | activity at 200 µM (Shewanella sp. (TC11)): 45.5 ± 1.1% | EC50 (Shewanella sp. (TC11)): 165 ± 37.8 µM | activity at 200 µM [3]: 19 ± 6.5% | EC50 [3]: 104 ± 4.6 µM | activity at 200 µM (Polaribacter sp. (TC5)): 23.3 ± 4% | EC50 (Polaribacter sp. (TC5)): 50.2 ± 10.9 µM | activity at 200 µM (Paracoccus sp. (4M6)): 24.5 ± 6.9% | EC50 (Paracoccus sp. (4M6)): 44.2 ± 25.2 µM
